For one data set, the target named is T1, nAChR α4/β2 (Homo sapiens, UniProt P17787+P43681).
T1 construct: host or cells: HEK293 cells, transient transfection
The data set is described as follows: nAChR α4/β2 positive allosteric modulator assay (FLIPR). It counts as cell-based. The conditions noted are these: with 10 μM Ach (= 0%), 10 μM Ach + epibatidine = 100%.

For the next data set, the target named is T2, nAChR α7 (Homo sapiens, UniProt P36544).
T2 construct: host or cells: CHO cells
The data set is described as follows: nAChR α7 positive allosteric modulator assay (FLIPR). Format: cell-based. The note with it: with 30 μM Ach (= 0%), 30 μM Ach + 10 μM PNU-120596 = 100%.

The test system of data set [1] is BACE-1 protein expression. As to the kind of experiment: BACE-1 protein expression in SHSY cells (Western blot). It counts as cell-based, human. The conditions noted are these: 24 hours, corrected for actin.
A short description of data set [2]: Case: treatment of patient with autism and seizure disorder. It counts as in vivo, human patient. The note with it: 1.0 mg three times per day. The text has this: A patient, who was diagnosed with autism and a seizure disorder, had brain surgery and began rehabilitation the following month.
Data set [3] is described as follows: Physical signs after oral multi-dose administration. Format: in vivo, Sprague-Dawley rats. The note with it: 0.6 or 6.0 mg/kg BW p.o. in three divided doses. From the text:
The physical signs of each animal were monitored following administration of the test compound.

Data set [4] deals with Experimental Autoimmune Thyroiditis. As to the kind of experiment: Experimental Autoimmune Thyroiditis (Example 16A): thyroid histopathology. It counts as in vivo, mice. The conditions noted are these: 0.05 mg/ml in drinking water, day 21, p=0.05. As to the method: (§1) Thyroiditis was induced by injection of thyroglobulin emulsified in complete Freund's adjuvant (CFA). On days 0 and 7, female mice received subcutaneous injection of 100 μg thyroglobulin (2 injections of 50 μg each). Control mice drank water. […] Mice were sacrificed on day 21.
Thyroid histopathology. Thyroid glands were removed. One lobe was fixed in formalin for histopathology. One lobe was frozen for immunohistochemistry. The extent of lymphocytic infiltration and destruction of the thyroid gland was assessed digitally. Initially, the entire thyroid lobe was examined. […] The final score was expressed as the percent of the thyroid area infiltrated by lymphocytes and damaged. The results are shown graphically in FIG. 42. […] Photomicrographs of hematoxylin- and eosin-stained thyroids from control and anatabine-treated mice are shown in FIG. 43A (control) and FIG. 43B (anatabine-treated).

Data set [5] has the same test system. As to the kind of experiment: Experimental Autoimmune Thyroiditis (Example 16A): lymphoid typing by flow cytometry. The conditions noted are these: p=0.0143. It counts as in vivo, mice. As to the method: as §1
Lymphoid typing. Cervical lymph nodes were removed for lymphoid typing by flow cytometry. Spleen and peritoneal macrophages were removed for ex vivo stimulation.

Another data set concerns BACE-1 mRNA. As to the kind of experiment: BACE-1 mRNA levels in SHSY cells by RTPCR. Format: cell-based, human. The note with it: 30 minutes, TNF-α induced. From the text: TNF-α was used to increase BACE expression.
Another data set concerns Aβ production. As to the kind of experiment: Aβ production in 7W CHO cells. Format: cell-based.
The test system of another data set is autoimmune thyroiditis. The data set is described as follows: Autoimmune thyroiditis in thyroglobulin-immunized mice (Example 16B). The conditions noted are these: 0.05 mg/ml in drinking water. Format: in vivo, CBA/J female mice. As to the method:
In another experiment, eighteen CBA/J female mice were immunized with mouse thyroglobulin, emulsified in complete Freund's adjuvant, on day 0 and day 7. One group of mice (n=10) drank regular water. […] Mice were sacrificed 21 days after the first immunization to collect the thyroid gland and the blood. The thyroid was analyzed for the presence of infiltrating mononuclear cells. The blood was analyzed for the levels of antibodies against thyroglobulin.

Data set [6] deals with LPS-induced IL-1β release. The data set is described as follows: LPS-induced IL-1β release in whole human blood. It counts as cell-based. The procedure:
Whole human blood was treated with LPS to stimulate inflammatory responses. […] The inflammatory molecule IL-1β was measured after 16 hours.

The conditions of data set [7]: nicotine 1.25 mg/kg (1 female) and 1.0 mg/kg (3 females) single i.v. As to the method: One control group of animals received a single i.v. dose of the vehicle at 5 mL/kg. Ten rats (5 males and 5 females) were dosed per group. […] One female received a single i.v. dose of 1.25 mg/kg, and 3 females received a single i.v. dose of 1.0 mg/kg.
Following the tolerability study, an additional group was added to the study. […] All animals were observed daily. Body weight and food consumption was measured daily, with any abnormal observations noted. Average daily body weights and food consumption was tabulated with standard deviation calculated.

The nature of data set [8]: Single i.v. dose toxicity with 14-day observation: clinical signs and mortality. It counts as in vivo, Sprague-Dawley rats. The note with it: nicotine 0.75 mg/kg single i.v. The procedure: Body weight and food consumption was measured daily for 14 days. On day 15, urine was collected on all surviving animals. The animals were euthanized and bled via cardiac puncture, and blood was collected for analysis. Tissues were collected, weighed, evaluated for gross abnormalities, and stored in 10% neutral-buffered formalin.
Four aliquots of each dose formulation were collected and stored at −80° C.
The animals were weighed prior to dosing and received a single i.v. dose via the lateral tail vein of either test compound or vehicle at a volume of 5 mL/kg.

“Also recorded” adds a separate entry of the source.

T1 sequence (P17787 26-502): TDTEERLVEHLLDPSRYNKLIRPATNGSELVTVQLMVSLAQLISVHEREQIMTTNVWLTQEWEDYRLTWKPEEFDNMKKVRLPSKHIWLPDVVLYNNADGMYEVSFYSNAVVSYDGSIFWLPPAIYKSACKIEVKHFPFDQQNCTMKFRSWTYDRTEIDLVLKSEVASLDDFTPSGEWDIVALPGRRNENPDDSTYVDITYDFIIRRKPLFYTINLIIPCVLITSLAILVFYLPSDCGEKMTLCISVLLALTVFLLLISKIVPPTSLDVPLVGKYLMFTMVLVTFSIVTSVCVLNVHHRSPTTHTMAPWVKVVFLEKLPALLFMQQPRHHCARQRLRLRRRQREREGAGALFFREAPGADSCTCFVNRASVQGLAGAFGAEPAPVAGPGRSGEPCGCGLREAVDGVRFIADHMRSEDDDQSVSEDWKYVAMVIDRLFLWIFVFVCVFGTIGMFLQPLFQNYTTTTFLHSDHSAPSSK
T1 sequence (P43681 29-627): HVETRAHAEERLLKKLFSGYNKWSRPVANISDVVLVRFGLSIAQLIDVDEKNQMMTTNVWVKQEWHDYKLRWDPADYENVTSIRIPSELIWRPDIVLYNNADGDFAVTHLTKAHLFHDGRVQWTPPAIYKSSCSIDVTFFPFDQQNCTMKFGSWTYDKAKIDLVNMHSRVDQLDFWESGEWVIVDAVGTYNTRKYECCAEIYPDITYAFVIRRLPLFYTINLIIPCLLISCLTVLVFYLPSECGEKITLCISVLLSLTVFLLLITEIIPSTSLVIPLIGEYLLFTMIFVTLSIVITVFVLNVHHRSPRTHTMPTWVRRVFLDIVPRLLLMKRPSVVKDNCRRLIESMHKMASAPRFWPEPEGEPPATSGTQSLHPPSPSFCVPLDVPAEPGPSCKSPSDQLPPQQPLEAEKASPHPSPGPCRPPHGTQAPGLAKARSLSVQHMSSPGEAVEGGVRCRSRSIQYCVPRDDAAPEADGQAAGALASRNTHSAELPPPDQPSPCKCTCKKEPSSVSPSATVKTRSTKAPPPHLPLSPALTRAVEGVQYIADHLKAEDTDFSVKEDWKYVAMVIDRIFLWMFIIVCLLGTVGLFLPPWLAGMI
T2 sequence (P36544 23-502): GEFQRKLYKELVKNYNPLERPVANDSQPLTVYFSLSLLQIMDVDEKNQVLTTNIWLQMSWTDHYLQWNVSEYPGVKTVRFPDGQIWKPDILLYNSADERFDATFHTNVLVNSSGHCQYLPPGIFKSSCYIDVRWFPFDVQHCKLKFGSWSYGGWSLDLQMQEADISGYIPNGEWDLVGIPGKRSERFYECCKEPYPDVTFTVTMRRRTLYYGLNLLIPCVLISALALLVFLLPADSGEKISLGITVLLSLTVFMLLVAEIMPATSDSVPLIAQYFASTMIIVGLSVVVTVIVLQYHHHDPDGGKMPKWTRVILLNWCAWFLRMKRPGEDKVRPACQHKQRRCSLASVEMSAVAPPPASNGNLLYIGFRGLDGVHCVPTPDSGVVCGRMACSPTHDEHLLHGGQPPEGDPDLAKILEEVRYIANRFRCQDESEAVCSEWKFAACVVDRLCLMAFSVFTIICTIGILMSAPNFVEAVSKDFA
Procedure for nAChR α4/β2: (§2) The following three (3) channels were evaluated: • 1. nAChR α3/β4 (encoded by the human CHRNA3 and CHRNB4 gene and stably expressed in CHO cells); • 2. nAChR α4/β2 (CHRNA4 and CHRNB2 gene and transiently expressed in HEK293 cells); and • 3. nAChR α7 (encoded by the human nicotinic α7 gene coexpressed in CHO cells with the chaperone RIC-3 encoded by the human RIC3 gene).
(§3) The ability of each test article to act as an agonist, a positive allosteric modulator or antagonist of three nAChR receptor channels was evaluated in the presence of 0.1 atropine. Both test articles were evaluated for responses on each nAChR channel at eight (8) concentrations: 0.3, 1, 3, 10, 30, 100, 300, and 1000 μM (n=4 for each concentration).
(§4) HEK293 or CHO cells were transiently or stably transfected with the appropriate human ion channel cDNAs. Stable transfectants were selected by coexpression with the antibiotic-resistance gene(s) incorporated into the expression plasmid(s). Selection pressure was maintained by including selection antibiotics in the culture medium. HEK293 cells were cultured in Dulbecco's Modified Eagle Medium/Nutrient Mixture F-12 (D-MEM/F-12) supplemented with 10% fetal bovine serum, 100 U/mL penicillin G sodium, 100 g/mL streptomycin sulfate and appropriate selection antibiotics. CHO cells were cultured in Ham's F-12 supplemented with 10% fetal bovine serum, 100 U/mL penicillin G sodium, 100 g/mL streptomycin sulfate and appropriate selection antibiotics.
(§5) For FLIPR TETRA™ assay, cells were plated in 384-well black wall, flat clear bottom microtiter plates (Type: BD Biocoat Poly-D-Lysine Multiwell Cell Culture Plate) at 20,000 to 30,000 cells per well (384-well plate). Cells were incubated at 37° C. overnight or until the cells reached a sufficient density in the wells (near confluent monolayer) to use in fluorescence assays. For α4β2 assay, cells were incubated at 27° C. for at least 7 hours before use.
(§6) Experiments were performed with either the FLIPR calcium sensitive dye kit (Fluo-8, ABDbioquest, for nAChR α3/β4 and nAChR α7) or FLIPR membrane potential kit (Molecular Devices, for nAChR α4/β2) according to the manufacturer's instructions. Briefly, cells were incubated with 201 dye for 30 min at 37° C. After dye loading period, for the agonist assay, 5 μl of the test, vehicle, or control articles at concentration of 5 times of final concentration were applied to the cells without stimulation. For the positive allosteric modulation (PAM) and antagonist assay, after test article application, the cells were stimulated with either low dose (for PAM) or high dose (for antagonist) of Ach.
The signal elicited in the presence of the positive control agonist and allosteric modulator epibatidine (10 μM Ach+3 μM epibatidine) was set to 100% and the signal from the agonist control (10 μM Ach) was set to 0%.
Procedure for nAChR α7: as §2, §3, §4, §5, §6
The ability of each test article to act as a positive allosteric modulator of nicotinic α7 was carried out in the presence of the positive control agonist (30 μM Ach) alone. The signal elicited in the presence of the positive control agonist and allosteric modulator PNU-120596 (30 μM Ach+10 μM PNU-120596) was set to 100% and the signal from the agonist control (30 μM Ach) was set to 0%. Values were considered significant and in bold font if the test article mean was three or more standard deviations above the agonist control mean.

For the compound `C1=CCC(c2cccnc2)NC1` (racemic) [Anatabine (racemate)], the “Normalized % Potentiation” value at nAChR α4/β2 (test conc 0.3 μM) is listed as −18.94%; at nAChR α4/β2 (test conc 1 μM), −27.03%; at nAChR α4/β2 (test conc 3 μM) it was −35.59%; at nAChR α4/β2 (test conc 10 μM) it was −42.34%; at nAChR α4/β2 (test conc 30 μM), −39.48%; at nAChR α4/β2 (test conc 100 μM), −38.34%. In addition, the “Normalized % Potentiation” value on nAChR α4/β2 (test conc 300 μM) is reported as −41.07%; on nAChR α4/β2 (test conc 1000 μM) it was −35.30%; on nAChR α7 (test conc 0.3 μM), −0.94%; at nAChR α7 (test conc 1 μM), −1.05%; at nAChR α7 (test conc 3 μM), −0.82%; at nAChR α7 (test conc 10 μM), −0.51%. Further, the “Normalized % Potentiation” value on nAChR α7 (test conc 30 μM) is given as −0.57%; on nAChR α7 (test conc 100 μM) it was −0.64%; at nAChR α7 (test conc 300 μM), −0.74%; at nAChR α7 (test conc 1000 μM) it was −1.05%.

On to `C1=CCC(c2cccnc2)NC1` (racemic) [Anatabine, 1,2,3,6-tetrahydro-[2,3′]bipyridinyl], for which the BACE-1 protein expression result in data set [1] is listed as “reduced BACE expression”. Moreover, the cognitive benefits entry in [2] (from approximately one week) was “improved communication and language skills and the ability to focus”. Moreover, the frequency of seizures entry in [2] (over 3½ weeks, one patient) was “decreased from one per day to approximately one per week”. In [3], the adverse signs result is “no adverse signs were observed”. Also, in [4], the “thyroid pathology (percent of thyroid area infiltrated and damaged)” value is “developed less severe thyroiditis than control mice”. Also, in data set [5] (cervical lymph nodes), the “activated T cells” value is given as “fewer activated T cells” and the “regulatory T cells” value is “more regulatory T cells”. Also, the “ability to present antigens” value in [5] was “a lower ability to present antigens”. In addition, the “BACE-1 mRNA expression” value in the data set with BACE-1 mRNA is “reduced this signal in a concentration-dependent manner”. Besides, the “Aβ production (Aβ1-42, Aβ1-40)” value with Aβ production is on record as “concentration-dependent reduction of Aβ production”. Besides, the “levels of thyroglobulin antibodies” value in the data set on autoimmune thyroiditis (day 21) is “had no effect on the levels of thyroglobulin antibodies”. The “thyroiditis frequency and severity” value with autoimmune thyroiditis (day 21, p=0.023) was “developed thyroiditis less frequently and of lower severity”. For the same compound, the “IL-1β production over time” value in data set [6] (LPS-stimulated human blood, repeated measurement (Example 15)) was “rapid and continuous effect on the suppression”. Also, the “accumulation of IL-1β” value in data set [6] (LPS-treated whole human blood, 16 hours (Example 13)) is recorded as “reduced accumulation of IL-1β”. In [6] (LPS-treated whole human blood, 16 hours (Example 14)), the “accumulation of IL-1β over dose response” value is listed as “reduced accumulation of IL-1β”.

Turning to `CN1CCCC1c1cccnc1.O=C(O)C(O)C(O)C(=O)O` (single isomer, unassigned; (-)) [Nicotine, (−) Nicotine hydrogen tartrate, reference compound], the “clinical signs in tolerability study” value in [7] is “experienced severe tremors upon completion of dosing, but all returned to normal by 20 minutes post dose”. Moreover, the mortality entry in data set [8] (5 males and 5 females, tartrate) was “One male and two females died post dose; also recorded: one male animal and 2 females died following test compound administration”. In addition, the “clinical signs after dosing” value in [8] (male and female rats) is given as “experienced tremors upon compound administration but returned to normal within 15-20 minutes post dose”.
